Converted amounts (≈) assume the structure as drawn. Like-named read-outs stand apart in the source and are kept apart here.
Tests used:
[1] = test system: S. aureus NRS100 (Mec^R); assay: MIC against S. aureus NRS100 (Table 14); type: cell-based, Staphylococcus aureus; conditions: for MIC: compounds dissolved in DMSO or 1% sodium carbonate; for inhibitory activity (in words): Table 14
Experimental: The recited compounds were dissolved in DMSO or in 1% sodium carbonate and transferred into micro titer plate to final concentration of 1000 μg/mL.

[2] = molecular target: P99 (class C β-lactamase) (Enterobacter cloacae, UniProt P05364); assay: β-Lactamase assay (nitrocefin colour change), P99; type: biochemical; conditions: Table 10; class symbols x/xx/xxx, key not given
Chain of P99 (class C β-lactamase) (P05364 21-381): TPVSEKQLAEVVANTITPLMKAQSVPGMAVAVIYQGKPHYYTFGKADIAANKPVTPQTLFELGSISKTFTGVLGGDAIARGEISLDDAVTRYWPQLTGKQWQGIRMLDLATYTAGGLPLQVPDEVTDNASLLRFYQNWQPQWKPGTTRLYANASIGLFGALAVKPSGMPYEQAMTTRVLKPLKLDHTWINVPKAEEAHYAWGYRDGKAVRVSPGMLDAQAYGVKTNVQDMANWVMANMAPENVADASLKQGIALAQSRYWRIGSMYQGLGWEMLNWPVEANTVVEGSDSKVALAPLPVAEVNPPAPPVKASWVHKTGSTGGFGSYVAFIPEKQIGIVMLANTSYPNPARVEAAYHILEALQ
Experimental: (§1) β-Lactamase Assays (TEM-1, P99, and OXA-10): The activity of the compounds of the invention (inhibitors) toward β-lactamases was evaluated using 96 well plates. The reaction mixture included 10 mM sodium phosphate, pH 7.0, 150 mM sodium chloride, 0.01% Triton X-100, 100 μM nitrocefin, 10 nM of β-lactamases (class A: TEM-1; class C: P99, or class D: OXA-10), and variable concentrations of the inhibitors in a total volume of 100 μL. β-Lactamases were pre-incubated with the compounds at room temperature for 5 minutes, and the assay was initiated by the addition of nitrocefin. The inhibition of the enzyme activity by the compounds was determined by monitoring color change (from yellow to red) of nitrocefin after 20 minutes. Stock solutions of the compounds were prepared in dimethyl sulfoxide (DMSO). No more than 5% DMSO was present in assays, unless noted otherwise. B1aR Assay: The surface domain of B1aR (1 μM) was added to each inhibitor (at various concentrations) in 100 mM sodium phosphate, 50 mM sodium bicarbonate, at pH 7.0. The reaction mixtures were incubated at room temperature for 20 minutes. BOCILLIN FL, a fluorogenic ligand, was added to a concentration of 20 μM in a final volume of 20 μL. The mixtures were incubated at 37° C. for 5 minutes, at which point the reactions were quenched by the addition of 15 μL of the SDS sample buffer (125 mM Tris, 4% SDS, 20% glycerol, 2% 2-mercaptoethanol, pH 6.8), and were boiled for 4 minutes. The samples were loaded onto 15% SDS-PAGE, the gel was developed and scanned using a Storm 840® Fluorimager. The fluorescent bands of BOCILLIN FL-labeled B1aR^S were analyzed by Image Quant 5.2 software. PBP2 Assay: The PBP2 assay was performed according to the methods of Villegas-Esterada et al. (J. Am. Chem. Soc. 2008, 130, 9212-9213).

[3] = molecular target: OXA-10 (class D β-lactamase) (Pseudomonas aeruginosa, UniProt P14489); assay: β-Lactamase assay (nitrocefin colour change), OXA-10; type: biochemical; conditions: Table 10; class symbols x/xx/xxx, key not given
Chain of OXA-10 (class D β-lactamase) (P14489 20-266, species assumed): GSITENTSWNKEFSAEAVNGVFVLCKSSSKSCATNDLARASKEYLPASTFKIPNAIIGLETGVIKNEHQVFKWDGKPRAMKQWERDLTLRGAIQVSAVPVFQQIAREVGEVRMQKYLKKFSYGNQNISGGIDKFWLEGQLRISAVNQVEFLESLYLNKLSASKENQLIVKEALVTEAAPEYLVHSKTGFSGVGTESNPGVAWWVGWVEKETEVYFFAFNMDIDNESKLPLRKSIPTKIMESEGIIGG
Experimental: as §1

[4] = test system: S. aureus NRS11 (Mec^S); assay: MIC against S. aureus NRS11 (Table 13); type: cell-based, Staphylococcus aureus; conditions: for MIC: compounds dissolved in DMSO or 1% sodium carbonate; for inhibitory properties (in words): Table 13
Experimental: All recited compounds were dissolved in DMSO or in 1% sodium carbonate and transferred to micro titer plates to final concentrations of 1000 μg/mL.

[5] = molecular target: TEM-1 (class A β-lactamase) (Escherichia coli, UniProt P62593); assay: β-Lactamase assay (nitrocefin colour change), TEM-1; type: biochemical; conditions: Table 10; class symbols x/xx/xxx, key not given
Chain of TEM-1 (class A β-lactamase) (P62593 24-286 limits assumed): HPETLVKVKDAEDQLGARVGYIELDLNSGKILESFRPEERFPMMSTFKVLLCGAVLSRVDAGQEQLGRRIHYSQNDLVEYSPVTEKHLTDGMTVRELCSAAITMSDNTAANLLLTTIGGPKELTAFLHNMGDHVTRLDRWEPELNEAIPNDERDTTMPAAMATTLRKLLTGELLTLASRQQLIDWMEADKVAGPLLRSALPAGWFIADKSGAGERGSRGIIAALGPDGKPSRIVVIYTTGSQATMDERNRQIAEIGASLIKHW
Experimental: as §1

[6] = Staphylococcus aureus, read-out: MIC

CCCCCCCCOc1ccc(N)cc1Cl [Compound 299]
MIC [1, 6]: 16 µg/mL (≈ 62.6 µM)

CC(=O)OCC1=C(C(=O)O)N2C(=O)C(N3C(=O)C4=C(SCCS4)C3=O)C2SC1 (stereo not drawn) [Compound 118]
P99 [2]: xxx

CC(Oc1ccc(NC(=O)c2c(Cl)c(Cl)c(Cl)c(Cl)c2C(=O)O)cc1Cl)c1ccccc1 (stereo not drawn) [Compound 381]
OXA-10 [3]: xxx | MIC [4, 6]: 16 µg/mL (≈ 30 µM) | inhibitory properties (in words) [4]: significant inhibitory properties | MIC [1, 6]: 32 µg/mL (≈ 60 µM) | inhibitory activity (in words) [1]: significant inhibitory activity

O=C1C2=C(SCCS2)C(=O)N1[C@@H](CO)[C@@H](O)c1ccc([N+](=O)[O-])cc1 [Compound 140]
TEM-1 [5]: xx | P99 [2]: xx | OXA-10 [3]: xx

CC(Oc1ccc(NC(=O)c2ccccc2C(=O)O)cc1Cl)c1ccccc1 (stereo not drawn) [Compound 379]
MIC [4]: >2,000 μg/mL | MIC [1]: >2,000 μg/mL

O=C1c2c(Br)c(Br)c(Br)c(Br)c2C(=O)N1c1ccc(OCc2ccccc2)c(Cl)c1 [Compound 227]
TEM-1 [5]: xxx | OXA-10 [3]: xxx

CCCCCCCCOc1ccc(NC(=O)c2c(F)c(F)c(F)c(F)c2C(=O)O)c[n+]1[O-] [Compound 359]
MIC [4, 6]: 1000 µg/mL (≈ 2180 µM) | MIC [1, 6]: 1000 µg/mL (≈ 2180 µM)

O=C(O)c1c(F)c(F)c(F)c(F)c1C(=O)Nc1ccc(OCC(O)COCC2CC2)c(Cl)c1 (stereo not drawn) [Compound 354]
MIC [4]: 500 µg/mL (≈ 1020 µM) | MIC [1]: 500 µg/mL (≈ 1020 µM)

CC(C)C[C@@H](C(=O)O)C(C(=O)O)C(=O)OC(C)(C)C (stereo partly drawn) [Compound 330]
MIC [4]: 2,000 μg/mL | MIC [1]: 2,000 μg/mL

CCCCCCCCOc1ccc(N2C(=O)c3c(Br)c(Br)c(Br)c(Br)c3C2=O)cc1 [Compound 230]
MIC [1, 6]: > 16 µg/mL

O=C(O)c1c(Cl)c(Cl)c(Cl)c(Cl)c1C(=O)Nc1ccc(Cl)c(C(F)(F)F)c1 [Compound 258]
TEM-1 [5]: xxx | P99 [2]: xx | OXA-10 [3]: xx

Cc1ccccc1COc1ccc(NC(=O)c2ccccc2C(=O)O)cc1Cl [Compound 383]
MIC [4]: 128 µg/mL (≈ 323 µM) | MIC [1]: 128 µg/mL (≈ 323 µM)

CCCCOC(=O)c1ccc(NC(=O)c2c(Br)c(Br)c(Br)c(Br)c2C(=O)O)cc1 [Compound 334]
MIC [4, 6]: 128 µg/mL (≈ 195 µM) | MIC [1, 6]: 128 µg/mL (≈ 195 µM)

CCCCOC(=O)c1ccc(NC(=O)c2ccccc2C(=O)O)cc1 [Compound 331]
MIC [4, 6]: 2000 µg/mL (≈ 5860 µM) | MIC [1, 6]: 2000 µg/mL (≈ 5860 µM)

O=C(O)CC1(CC(=O)Nc2ccc(Cl)c(C(F)(F)F)c2)CCCC1 [Compound 246]
OXA-10 [3]: xx

O=C(O)c1cccc([N+](=O)[O-])c1C(=O)Nc1ccc(OCc2ccccc2)nc1 [Compound 392]
MIC [4]: 500 µg/mL (≈ 1270 µM) | MIC [1]: 500 µg/mL (≈ 1270 µM)

O=C(O)c1cccnc1C(=O)Nc1ccc(OCc2cccc(OC(F)(F)F)c2)c(Cl)c1 [Compound 423]
MIC [1, 6]: 250 µg/mL (≈ 536 µM)

CCCCCCCCOc1ccc(N(C)C(=O)c2c(Cl)c(Cl)c(Cl)c(Cl)c2C(=O)OC)cc1 [Compound 282]
OXA-10 [3]: xxx

COCCOCCOc1ccc(NC(=O)c2c(Br)c(Br)c(Br)c(Br)c2C(=O)O)c[n+]1[O-] [Compound 410]
MIC [4, 6]: 500 µg/mL (≈ 723 µM) | MIC [1, 6]: 500 µg/mL (≈ 723 µM)

O=C(O)c1c(Br)c(Br)c(Br)c(Br)c1C(=O)Nc1cccc(C(F)(F)F)c1 [Compound 196]
TEM-1 [5]: xx | P99 [2]: xx

O=C(O)c1c(Br)c(Br)c(Br)c(Br)c1C(=O)Nc1ccc(CO)cc1 [Compound 223]
TEM-1 [5]: xxx | P99 [2]: xxx | OXA-10 [3]: xxx

CCCCCCCCOc1ccc(N(C)C(=O)c2c(F)c(F)c(F)c(F)c2C(=O)O)cc1 [Compound 305]
P99 [2]: xx | OXA-10 [3]: xx | MIC [1, 6]: 16 µg/mL (≈ 35.1 µM)

O=C(O)c1c(Br)c(Br)c(Br)c(Br)c1C(=O)Nc1ccc(OCc2ccccc2)nc1 [Compound 365]
OXA-10 [3]: xx | MIC [4, 6]: 8 µg/mL (≈ 12 µM) | inhibitory properties (in words) [4]: significant inhibitory properties | MIC [1, 6]: 16 µg/mL (≈ 24.1 µM) | inhibitory activity (in words) [1]: significant inhibitory activity

O=C(O)c1c(Cl)c(Cl)c(Cl)c(Cl)c1C(=O)Nc1ccc(CO)cc1 [Compound 254]
OXA-10 [3]: xx
